Test results: patent publication US12065445B2, “CDK2 inhibitors and methods of using the same” (Cedilla Therapeutics, Inc., priority 2021, dated 2024)

Experiments:
[1] = molecular target: T1, CDK2/Cyclin E1 (Homo sapiens, UniProt P24941); assay: CDK2/Cyclin E1 Caliper Assay (LabChip EZ Reader mobility shift); type: biochemical; conditions: read-out: Caliper Assay (CDK2/CCNE1): IC50
T1 construct: purchased Eurofins 14-475
Description: Inhibition of CDK2/Cyclin E1 activity in the presence of compounds of the present disclosure was evaluated using a Caliper LabChip® EZ Reader mobility shift assay. In the assay, CDK2/Cyclin E1 (Eurofins, 14-475) catalyzed the phosphorylation of a fluorescently tagged peptide 5-FAM-QSPKKG-CONH2 (PerkinElmer, FL Peptide 18) which induced a difference in capillary electrophoresis mobility. The peptide substrate and product were measured, and the conversion ratio was used to determine the inhibition (as % activity and IC50 values) of CDK2/Cyclin E1. Reactions contained 50 mM HEPES pH 7.5, 10 mM MgCl2, 1 mM EDTA, 2 mM DTT, 0.01% Brij35, 0.5 mg/mL BSA, 0.1% DMSO, 2.5 nM CDK2/Cyclin E1, 100 μM ATP, and 1.5 μM fluorescent peptide substrate.
Dose titrations of inhibitors in 100% DMSO were combined with 3.25 nM CDK2/Cyclin E1 and 130 μM of ATP in reaction buffer. The mixtures were incubated for 30 minutes before the addition of fluorescent peptide substrate to initiate the kinase reaction. The final conditions were 2.5 nM CDK2/Cyclin E1, 100 μM ATP, and 1.5 μM fluorescent peptide. The reactions were stopped after 100 minutes with the addition of EDTA (400 mM final EDTA concentration). The stopped reactions were analyzed on a Caliper LabChip® EZ Reader II. The conversion ratios were normalized to yield % activity, plotted against compound concentration, and fit to a four-parameter equation to determine the IC50 for each compound.

[2] = tested on: Kuramochi cells; assay: BrdU Cell Proliferation Assay; type: cell-based; conditions: read-out: BrdU - KURAMOCHI.1: IC50
How it was run: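 Kuramochi cells were seeded at 2,000 cells/well, adhered overnight, then treated with a 10-point, 3-fold compound dilution series for 4 days. Proliferation was measured by a 1-hour BrdU pulse, anti-BrdU peroxidase colorimetric ELISA and 450 nm absorbance. Values were background-subtracted and normalized to DMSO wells.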

[3] = tested on: Kuramochi cells labeled with mApple-H2B; assay: IncuCyte Cell Proliferation Assay; type: cell-based; conditions: 72 h
How it was run: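 Cells imaged at 0 and 72 h after compound treatment (10 points, ½ log dilution, 20 μM top), with fluorescent nuclei counted. Fold change in count was normalized to DMSO wells and fitted to dose-response curves to give GI50.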

Row | IC50 [1] [µM] | Compound | IC50 [2] [µM] | IC50 [3] [µM]
1 | 0.01 to 0.1 | C[C@@H](OCc1ccccc1)[C@H](NC(=O)C1CN(C(=O)c2cnn(Cc3ccccc3)c2)CC12CN(C(=O)C1CC1(C)C)C2)C(=O)NCCCCCN (some centres unmarked) [I-57] | > 10 | 
2 | 1 to 10 | C[C@@H]1C[C@H](C)CN(C(=O)[C@@H](NC(=O)[C@H]2CN(C(=O)c3cn[nH]c3)CC23CN(C(=O)[C@H]2CC2(C)C)C3)[C@@H](C)OCC2CCCCC2)C1 [I-173B] | > 10 | 
3 | > 10 | CNC(=O)[C@@H](NC(=O)[C@H]1CN(CC2CCOCC2)CC12CN(C(=O)[C@H]1CC1(C)C)C2)[C@@H](C)OCc1ccccc1 [I-68B] | > 10 | 
4 | 1 to 10 | C[C@@H](OCC1CCCCC1)[C@H](NC(=O)[C@H]1CN(C(=O)c2cncs2)CC12CN(C(=O)[C@H]1CC1(C)C)C2)C(=O)N1CCC(F)(F)CC1 [I-192B] | > 10 | 
5 | > 10 | CNC(=O)[C@@H](NC(=O)[C@@H]1CN(Cc2cccnc2)CC12CN(C(=O)[C@H]1CC1(C)C)C2)[C@@H](C)OCc1ccccc1 [I-49A] | > 10 | 
6 | 1 to 10 | C[C@@H](OCC1CCCCC1)[C@H](NC(=O)[C@H]1CN(C(=O)c2cnn(Cc3ccccc3)c2)CC12CN(C(=O)[C@H]1CC1(C)C)C2)C(=O)N1CCC[C@H](N)C1 [I-150B] | > 10 | 
7 | ≤ 0.01 | C[C@@H](OCC1CCOCC1)[C@H](NC(=O)[C@@H]1CN(C(=O)c2cncs2)CC12CN(C(=O)[C@H]1CC1(C)C)C2)C(=O)N1CCC(c2ccncc2)CC1 [I-442] |  | 5 to 20
8 | > 10 | CNC(=O)[C@H](COCc1ccccc1)NC(=O)[C@H]1CN(C(=O)c2cnn(Cc3ccccc3)c2)CC12CN(C(=O)C1(C(F)(F)F)CC1)C2 [I-113B] | > 10 | 
9 | > 10 | Cc1ccc(CNC(=O)[C@@H]2CN(C(=O)c3cnn(Cc4ccccc4F)c3)CC23CN(C(=O)[C@H]2CC2(C)C)C3)nn1 [I-407] |  | > 20
10 | > 10 | CNC(=O)[C@@H](NC(=O)[C@@H]1CN(C(=O)c2cnn(Cc3ccccc3)c2)CC12CN(C(=O)C1(C(C)C)CC1)C2)[C@@H](C)OCc1ccccc1 [I-109A] | > 10 | 
11 | 0.1 to 1 | CNC(=O)[C@@H](NC(=O)[C@@H]1CN(C(=O)c2cnco2)CC12CN(C(=O)[C@H]1CC1(C)C)C2)[C@@H](C)OCc1ccccc1 [I-39A] | > 10 | 
12 |  | CNC(=O)[C@@H](NC(=O)[C@H]1CN(C(=O)c2scnc2C2CCCC2)CC12CN(C(=O)[C@H]1CC1(C)C)C2)[C@@H](C)OCC1CCCCC1 [I-224A] | > 10 | > 20
13 |  | Cc1ccc(CNC(=O)[C@@H]2CN(C(=O)c3cnn(Cc4ccccc4)c3)CC23CN(C(=O)[C@H]2CC2(C)C)C3)nn1 [I-252] | 5 to 10 | 5 to 20
14 |  | C[C@@H](OCC1CCCCC1)[C@@H](CO)NC(=O)[C@H]1CN(C(=O)c2cnn(Cc3ccccc3)c2)CC12CN(C(=O)[C@H]1CC1(C)C)C2 [I-135B] | > 10 | 5 to 20
15 |  | CNC(=O)[C@@H](NC(=O)[C@@H]1CN(C(=O)c2sc(COC)nc2C)CC12CN(C(=O)[C@H]1CC1(C)C)C2)[C@@H](C)OCC1CCCCC1 [I-162A] | 0.5 to 5 | 5 to 20
16 |  | CNC(=O)[C@@H](NC(=O)[C@@H]1CN(C(=O)c2cncs2)CC12CN(C(=O)[C@H]1CC1(C)C)C2)[C@@H](C)OC1CC2CCC1CC2 (some centres unmarked) [I-464] | 0.5 to 5 | 0.5 to 5
17 |  | C[C@@H](OCC1CCCCC1)[C@H](NC(=O)[C@@H]1CN(C(=O)c2cn[nH]c2)CC12CN(C(=O)[C@H]1CC1(C)C)C2)C(=O)N1CCCCC1 [I-151A] | 0.5 to 5 | 0.5 to 5
18 |  | C[C@@H](OCC1CCCCC1)[C@H](NC(=O)C1CN(C(=O)c2cnn(Cc3ccccc3)c2)CC12CN(C(=O)[C@H]1CC1(C)C)C2)C(=O)N1CC(C)(C)C1 (some centres unmarked) [I-153 mixture] | ≤ 0.5 | ≤ 0.5
19 |  | C[C@@H](OCC1CCC(F)(F)CC1)[C@H](NC(=O)[C@@H]1CN(C(=O)c2cncs2)CC12CN(C(=O)[C@H]1CC1(C)C)C2)C(=O)N1CCC2(CC1)CC2 [I-380] | ≤ 0.5 | ≤ 0.5
20 |  | Cc1cc(C(=O)N2CC(C(=O)N[C@H](C(=O)N3CCCCC3)[C@@H](C)OCC3CCCCC3)C3(C2)CN(C(=O)[C@H]2CC2(C)C)C3)sn1 (some centres unmarked) [I-311] | ≤ 0.5 | ≤ 0.5

Row | IC50 [1] [µM] | Compound | IC50 [2] [µM] | IC50 [3] [µM]
21 |  | COC[C@H]1CCCN(C(=O)[C@@H](NC(=O)[C@@H]2CN(C(=O)c3cncs3)CC23CN(C(=O)[C@H]2CC2(C)C)C3)[C@@H](C)OC(C)C2CCC(F)(F)CC2)C1 (some centres unmarked) [I-360] | 0.5 to 5 | 0.5 to 5
22 |  | Cc1ccc(CNC(=O)[C@@H]2CN(C(=O)c3cnn(Cc4ccccc4)c3)CC23CN(C(=O)[C@H]2CC2(C)C)C3)cc1 [I-363] | 5 to 10 | 5 to 20
23 |  | C[C@@H](OCC1CCC(F)(F)CC1)[C@H](NC(=O)[C@@H]1CN(C(=O)c2cn[nH]c2)CC12CN(C(=O)[C@H]1CC1(C)C)C2)C(=O)N1CCC(F)(F)CC1 [I-228A] | > 10 | > 20
24 |  | CNC(=O)C(NC(=O)[C@@H]1CN(C(=O)c2cncs2)CC12CN(C(=O)[C@H]1CC1(C)C)C2)C(O)Cc1ccccc1 (some centres unmarked) [I-356] | > 10 | > 20
25 |  | Cc1ccc(CNC(=O)[C@@H]2CN(C(=O)c3cncs3)CC23CN(C(=O)[C@H]2CC2(C)C)C3)nn1 [I-378] | > 10 | > 20
26 |  | CC1(C)C[C@@H]1C(=O)N1CC2(CN(C(=O)c3cnn(Cc4ccccc4)c3)C[C@H]2C(=O)NCc2ccc(Cl)nn2)C1 [I-376] | > 10 | > 20
27 |  | CNC(=O)[C@@H](NC(=O)[C@@H]1CN(C(=O)c2cnn(Cc3ccccc3)c2)CC12CN(C(=O)[C@H]1CC1(C)C)C2)[C@@H](C)NCC1CCCCC1 [I-269, (S)-6-(1-benzyl-1H-pyrazole-4-carbonyl)-N-((2S,3R)-3-((cyclohexylmethyl)amino)-1-(methylamino)-1-oxobutan-2-yl)-2-((S)-2,2-dimethylcyclopropane-1-carbonyl)-2,6-diazaspiro[3.4]octane-8-carboxamide] | > 10 | 5 to 20
28 |  | C[C@@H](OC1(C2CCCCC2)CC1)[C@H](NC(=O)[C@@H]1CN(C(=O)c2cncs2)CC12CN(C(=O)[C@H]1CC1(C)C)C2)C(=O)N1CCCCC1 [I-357] | 5 to 10 | 5 to 20
29 |  | C[C@@H](OCC1CCCCC1)[C@H](NC(=O)C1CN(C(=O)c2cncs2)CC12CN(C(=O)[C@H]1CC1(C)C)C2)C(=O)N1CCC[C@H](CO)C1 (some centres unmarked) [I-193] | ≤ 0.5 | ≤ 0.5
30 |  | C[C@@H](OCC1CCCCC1)[C@H](NC(=O)C1CN(C(=O)C2CCC(=O)NC2)CC12CN(C(=O)[C@H]1CC1(C)C)C2)C(=O)N1CCCCC1 (some centres unmarked) [I-265] | > 10 | > 20
31 |  | C[C@@H](OCC1CCCCC1)[C@H](NC(=O)[C@H]1CN(C(=O)c2cnn(Cc3ccccc3)c2)CC12CN(C(=O)[C@H]1CC1(C)C)C2)C(=O)N1CCCCC1 [I-194B] | 0.5 to 5 | 5 to 20
32 |  | CNC(=O)[C@@H](NC(=O)[C@@H]1CN(C(=O)Cc2cnn(C)c2)CC12CN(C(=O)[C@H]1CC1(C)C)C2)[C@@H](C)OCc1ccccc1 [I-384] | > 10 | > 20
33 | ≤ 0.01 | C[C@@H](OCC1CCCCC1)[C@H](NC(=O)[C@@H]1CN(C(=O)c2cnn(Cc3ccccc3)c2)CC12CN(C(=O)[C@H]1CC1(C)C)C2)C(=O)N1CCC[C@H](N)C1 [I-150A] | 0.5 to 5 | 
34 |  | CNC(=O)[C@@H](NC(=O)[C@@H]1CN(C(=O)c2scnc2C(F)(F)F)CC12CN(C(=O)[C@H]1CC1(C)C)C2)[C@@H](C)OCC1CCCCC1 [I-163A] | > 10 | > 20
35 |  | C[C@@H](OCC1CCCCC1)[C@H](NC(=O)C1CN(C(=O)c2cncs2)CC12CN(C(=O)[C@H]1CC1(C)C)C2)C(=O)N1CCC[C@@H](CO)C1 (some centres unmarked) [I-197] | 0.5 to 5 | ≤ 0.5
36 |  | CO[C@H](C)[C@H](NC(=O)[C@@H]1CN(C(=O)c2cnn(Cc3ccccc3)c2)CC12CN(C(=O)[C@H]1CC1(C)C)C2)C(=O)N1CCC(CN)CC1 [I-306] | > 10 | > 20
37 |  | C[C@@H](OCC1CCCCC1)[C@@H](CO)NC(=O)[C@@H]1CN(C(=O)c2cncs2)CC12CN(C(=O)[C@H]1CC1(C)C)C2 [I-307] | 0.5 to 5 | 0.5 to 5
38 |  | CNC(=O)[C@@H](NC(=O)[C@@H]1CN(C(=O)c2scnc2Cl)CC12CN(C(=O)[C@H]1CC1(C)C)C2)[C@@H](C)OCC1CCCCC1 [I-157A] | 0.5 to 5 | 0.5 to 5
39 |  | C[C@H](OC1CCN(C(=O)[C@@H]2CN(C(=O)c3cnn(Cc4ccccc4)c3)CC23CN(C(=O)[C@H]2CC2(C)C)C3)CC1)c1ccccc1 [I-275] | > 10 | > 20
40 |  | CNC(=O)[C@@H](NC(=O)[C@@H]1CN(C(=O)c2cnn(Cc3ccccc3)c2)CC12CN(C(=O)N(C)C1CC1)C2)[C@@H](C)OCC1CCCCC1 [I-295] | 5 to 10 | 5 to 20
